In EPA's ToxRefDB 2:

Key:
rat [1] = settings: Prenatal developmental toxicity study, sprague dawley, Inhalation, Whole-Body, dose end: 20 GD
rat [2] = settings: Prenatal developmental toxicity study, sprague dawley, Oral, Gavage/Intubation, dose end: 16 GD
rat [3] = settings: Subchronic oral toxicity in rodents, sprague dawley, Feed, dose end: 13 week
rabbit [4] = settings: Prenatal developmental toxicity study, new zealand white, Oral, Gavage/Intubation, dose end: 19 GD
rat [5] = settings: Prenatal developmental toxicity study, other, Oral, Gavage/Intubation, dose end: 15 GD
mouse = settings: Prenatal developmental toxicity study, cd1, Oral, Gavage/Intubation, dose end: 15 GD
rat [6] = settings: Multigenerational reproductive toxicity study, other, Oral, Feed, dose end: 2 generation
rabbit [7] = settings: Prenatal developmental toxicity study, other, Oral, Gavage/Intubation, dose end: 18 GD
rat [8] = settings: Subchronic oral toxicity in rodents, sprague dawley, Feed, dose end: 3 month
rat [9] = settings: Prenatal developmental toxicity study, wistar, Oral, Gavage/Intubation, dose end: 16 GD
rabbit [10] = settings: Prenatal developmental toxicity study, himalayan, Oral, Gavage/Intubation, dose end: 18 GD
rat [11] = settings: Multigenerational reproductive toxicity study, other, Oral, Feed, dose end: 2 generation; remark: listed apart in the source
hamster = settings: Prenatal developmental toxicity study, golden syrian, Oral, Gavage/Intubation, dose end: 15 GD
rat [12] = settings: Prenatal developmental toxicity study, sprague dawley, Oral, Gavage/Intubation, dose end: 15 GD
rat [13] = settings: Multigenerational reproductive toxicity study, wistar, Oral, Feed, dose end: 2 generation
[14] = group: developmental, systemic / in life observation / body weight / fetal weight
[15] = group: developmental, systemic / in life observation / body weight / fetal weight + developmental / developmental malformation / bone / incomplete ossification
[16] = group: maternal, systemic / in life observation / body weight / body weight gain + systemic / in life observation / food consumption / food consumption
[17] = group: developmental, developmental / developmental malformation / bone / incomplete ossification + developmental / developmental malformation / bone / unossified…
[18] = group: maternal, systemic / in life observation / body weight / body weight gain
[19] = group: maternal, systemic / in life observation / body weight / body weight gain + reproductive / reproductive performance / postimplantation loss / …
[20] = group: maternal, reproductive / reproductive performance / estrous cycle / length
[21] = group: systemic, systemic / clinical chemistry / calcium / calcium + systemic / clinical chemistry / globulins / globulins + systemic / clinical chemistry / …
[22] = group: developmental, developmental / developmental malformation / brain / hydrocephaly + developmental / developmental malformation / bone / domed head
[23] = group: maternal, reproductive / reproductive performance / postimplantation loss / postimplantation loss + reproductive / reproductive performance / …
[24] = group: developmental, developmental / developmental malformation / bone / [other] + developmental / developmental malformation / bone / discontinuous
[25] = group: developmental, developmental / developmental malformation / bone / [other] + developmental / developmental malformation / bone / discontinuous + …
[26] = group: maternal, systemic / in life observation / water consumption / water consumption
[27] = group: maternal, systemic / in life observation / water consumption / water consumption + systemic / in life observation / body weight / body weight gain + …
[28] = group: maternal, systemic / in life observation / water consumption / water consumption + systemic / in life observation / clinical signs / altered breathing…
[29] = group: offspring, systemic / in life observation / body weight / offspring (pup) weight
[30] = group: offspring, systemic / in life observation / body weight / offspring (pup) weight + developmental / developmental malformation / bone / extra …
[31] = group: parental, systemic / pathology microscopic / spleen / hemosiderosis
[32] = group: parental, systemic / pathology microscopic / spleen / hemosiderosis + systemic / in life observation / body weight / body weight gain + systemic / in …
[33] = group: developmental, developmental / developmental malformation / bone / full supernumerary + systemic / in life observation / body weight / fetal weight
[34] = group: developmental, developmental / developmental malformation / bone / full supernumerary + systemic / in life observation / body weight / fetal weight + …
[35] = group: maternal, systemic / in life observation / body weight / body weight gain + systemic / in life observation / food consumption / food consumption + …
[36] = group: cholinesterase, cholinesterase / cholinesterase / cholinesterase / cholinesterase (che)
[37] = group: systemic, systemic / hematology / anemia / anemia - hemolytic + systemic / in life observation / body weight / body weight gain + systemic / in life …
[38] = group: systemic, systemic / hematology / blood clotting / blood clotting - activated partial thromboplastin time + systemic / hematology / blood clotting / …
[39] = group: developmental, developmental / developmental malformation / bone / bent
[40] = group: maternal, systemic / in life observation / body weight / body weight + systemic / in life observation / body weight / body weight gain + systemic / in…
[41] = group: developmental, developmental / developmental malformation / bone / [other] + developmental / developmental malformation / bone / fragmented + developmental…
[42] = group: maternal, systemic / in life observation / mortality / mortality + systemic / in life observation / clinical signs / [other] + systemic / in life …
[43] = group: parental, systemic / in life observation / body weight / body weight + systemic / in life observation / body weight / body weight gain
[44] = group: reproductive, reproductive / reproductive performance / fertility / fertility + reproductive / reproductive performance / precoital interval / precoital …
[45] = group: developmental, developmental / developmental malformation / bone / [other] + developmental / developmental malformation / bone / absent + developmental / …
[46] = group: maternal, systemic / in life observation / clinical signs / ataxia + systemic / in life observation / clinical signs / body temperature + systemic / …
[47] = group: developmental, developmental / developmental malformation / bone / fragmented + developmental / developmental malformation / bone / unossified + …
[48] = group: maternal, systemic / in life observation / body weight / body weight gain + systemic / in life observation / mortality / mortality + systemic / …
[49] = group: offspring, systemic / in life observation / body weight / offspring (pup) weight + systemic / organ weight / spleen / absolute + systemic / organ …
[50] = group: parental, systemic / organ weight / spleen / absolute
[51] = group: parental, systemic / organ weight / spleen / absolute + systemic / in life observation / body weight / body weight gain + systemic / pathology …
[52] = group: reproductive, reproductive / reproductive performance / estrous cycle / abnormal

Cc1cc(C)cc(C)c1 [1,3,5-Trimethylbenzene]
LEL (rat [1]; [14]): 600 ppm
LOAEL (rat [1]; [14]): 600 ppm
NEL (rat [1]; [15]): 300 ppm
NOAEL (rat [1]; [15]): 300 ppm
LEL (rat [1]; [16]): 300 ppm
LOAEL (rat [1]; [16]): 300 ppm
NEL (rat [1]; [16]): 100 ppm
NOAEL (rat [1]; [16]): 100 ppm

Nc1nc(N)nc(Cl)n1 [2-Chloro-4,6-diamino-1,3,5-triazine]
LEL (rat [2]; [17]): 25 mg/kg/day
LOAEL (rat [2]; [17]): 25 mg/kg/day
NEL (rat [2]; [17]): 2.5 mg/kg/day
NOAEL (rat [2]; [17]): 2.5 mg/kg/day
LEL (rat [2]; [18]): 75 mg/kg/day
LOAEL (rat [2]; [18]): 75 mg/kg/day
NEL (rat [2]; [19]): 25 mg/kg/day
NOAEL (rat [2]; [19]): 25 mg/kg/day
LEL (rat [3]; [20]): 7.6 mg/kg/day
LOAEL (rat [3]; [20]): 7.6 mg/kg/day
NEL (rat [3]; [20]): 0.7 mg/kg/day
NOAEL (rat [3]; [20]): 0.7 mg/kg/day
LOAEL (rat [3]; [21]): > 34.1 mg/kg/day
NEL (rat [3]; [21]): 6.7 mg/kg/day
NOAEL (rat [3]; [21]): ≥ 34.1 mg/kg/day
LEL (rat [3]; group: systemic, systemic / clinical chemistry / protein / protein): 16.7 mg/kg/day

O=c1[nH]c(=O)[nH]c(=O)[nH]1 [Cyanuric acid]
LOAEL (rabbit [4]; group: developmental, developmental / developmental malformation / brain / hydrocephaly): 500 mg/kg/day
LEL (rabbit [4]; [22]): 500 mg/kg/day
NEL (rabbit [4]; [22]): 200 mg/kg/day
NOAEL (rabbit [4]; [22]): 200 mg/kg/day
LEL (rabbit [4]; [23]): 500 mg/kg/day
LOAEL (rabbit [4]; [23]): > 500 mg/kg/day
NEL (rabbit [4]; [23]): 200 mg/kg/day
NOAEL (rabbit [4]; [23]): ≥ 500 mg/kg/day

OCCOCCO [Diethylene glycol]
LEL (rat [5]; [24]): 4470 mg/kg/day
LOAEL (rat [5]; [24]): 4470 mg/kg/day
NEL (rat [5]; [25]): 1120 mg/kg/day
NOAEL (rat [5]; [25]): 1120 mg/kg/day
LEL (rat [5]; [26]): 4470 mg/kg/day
LOAEL (rat [5]; [26]): 4470 mg/kg/day
NEL (rat [5]; [27]): 1120 mg/kg/day
NOAEL (rat [5]; [27]): 1120 mg/kg/day
LEL (mouse; [14]): 11200 mg/kg/day
LOAEL (mouse; [14]): 11200 mg/kg/day
NEL (mouse; [14]): 2800 mg/kg/day
NOAEL (mouse; [14]): 2800 mg/kg/day
LEL (mouse; [26]): 2800 mg/kg/day
LOAEL (mouse; [26]): 2800 mg/kg/day
NEL (mouse; [28]): 559 mg/kg/day
NOAEL (mouse; [28]): 559 mg/kg/day

C#CCN1CC(=O)N(COC(=O)C2C(C=C(C)C)C2(C)C)C1=O (centres undefined) [Imiprothrin]
NEL (rat [6]; [29]): 126 mg/kg/day
NOAEL (rat [6]; [29]): 126 mg/kg/day
LEL (rat [6]; [30]): 369 mg/kg/day
LOAEL (rat [6]; [30]): 369 mg/kg/day
LEL (rat [6]; [31]): 144 mg/kg/day
LOAEL (rat [6]; [31]): 144 mg/kg/day
NEL (rat [6]; [32]): 14.7 mg/kg/day
NOAEL (rat [6]; [32]): 14.7 mg/kg/day
LEL (rabbit [7]; [33]): 100 mg/kg/day
LOAEL (rabbit [7]; [33]): 100 mg/kg/day
NEL (rabbit [7]; [34]): 30 mg/kg/day
NOAEL (rabbit [7]; [34]): 30 mg/kg/day
LOAEL (rabbit [7]; [16]): 100 mg/kg/day
LEL (rabbit [7]; [35]): 100 mg/kg/day
NEL (rabbit [7]; [35]): 30 mg/kg/day
NOAEL (rabbit [7]; [35]): 30 mg/kg/day
LEL (rat [8]; [36]): 399 mg/kg/day
LOAEL (rat [8]; [36]): > 657 mg/kg/day
NEL (rat [8]; [36]): 197 mg/kg/day
NOAEL (rat [8]; [36]): ≥ 657 mg/kg/day
LOAEL (rat [8]; [37]): 179 mg/kg/day
NOAEL (rat [8]; [37]): 5.9 mg/kg/day
LEL (rat [8]; [38]): 5.9 mg/kg/day
NEL (rat [8]; [38]): < 5.9 mg/kg/day

CCOC(=O)C1=NOC(c2ccccc2)(c2ccccc2)C1 [Isoxadifen-ethyl]
LEL (rat [9]; [39]): 120 mg/kg/day
LOAEL (rat [9]; [39]): 120 mg/kg/day
NEL (rat [9]; [39]): 15 mg/kg/day
NOAEL (rat [9]; [39]): 15 mg/kg/day
LEL (rat [9]; [40]): 1000 mg/kg/day
LOAEL (rat [9]; [40]): 1000 mg/kg/day
NEL (rat [9]; [40]): 120 mg/kg/day
NOAEL (rat [9]; [40]): 120 mg/kg/day
LEL (rabbit [10]; [41]): 500 mg/kg/day
LOAEL (rabbit [10]; [41]): 500 mg/kg/day
NEL (rabbit [10]; [41]): 50 mg/kg/day
NOAEL (rabbit [10]; [41]): 50 mg/kg/day
LOAEL (rabbit [10]; group: maternal, systemic / in life observation / mortality / mortality): 500 mg/kg/day
LEL (rabbit [10]; [42]): 500 mg/kg/day
NEL (rabbit [10]; [42]): 50 mg/kg/day
NOAEL (rabbit [10]; [42]): 50 mg/kg/day

C[C@H]1O[C@H](OC2[C@@H](O)[C@@H](O)C(O)[C@H](O)[C@H]2O)[C@@H](N)C[C@@H]1N=C(N)C(=O)O (some centres undefined) [Kasugamycin]
LEL (rat [11]; [43]): 70.3 mg/kg/day
LOAEL (rat [11]; [43]): 70.3 mg/kg/day
NEL (rat [11]; [43]): 13.7 mg/kg/day
NOAEL (rat [11]; [43]): 13.7 mg/kg/day
LEL (rat [11]; [44]): 425 mg/kg/day
LOAEL (rat [11]; [44]): 425 mg/kg/day
NEL (rat [11]; [44]): 70.3 mg/kg/day
NOAEL (rat [11]; [44]): 70.3 mg/kg/day

CC(C)(C#N)O[C@@H]1O[C@H](CO)[C@@H](O)[C@H](O)[C@H]1O [Linamarin]
LOAEL (hamster; [45]): > 140 mg/kg/day
NEL (hamster; [45]): 100 mg/kg/day
NOAEL (hamster; [45]): ≥ 140 mg/kg/day
LEL (hamster; group: developmental, developmental / developmental malformation / bone / absent + developmental / developmental malformation / bone / meningoencephalocele): 120 mg/kg/day
LEL (hamster; [46]): 100 mg/kg/day
LOAEL (hamster; [46]): > 140 mg/kg/day
NEL (hamster; [46]): 70 mg/kg/day
NOAEL (hamster; [46]): ≥ 140 mg/kg/day

[Li+].[O-]Cl [Lithium hypochlorite]
LOAEL (rat [12]; [47]): 500 mg/kg/day
NEL (rat [12]; [47]): 10 mg/kg/day
NOAEL (rat [12]; [47]): 100 mg/kg/day
LEL (rat [12]; group: developmental, developmental / developmental malformation / bone / kinked + developmental / developmental malformation / bone / thread-like + developmental…): 50 mg/kg/day
LEL (rat [12]; [48]): 500 mg/kg/day
LOAEL (rat [12]; [48]): 500 mg/kg/day
NEL (rat [12]; [48]): 100 mg/kg/day
NOAEL (rat [12]; [48]): 100 mg/kg/day

Cc1cc(C)c(C2=C(OC(=O)CC(C)(C)C)C3(CCCC3)OC2=O)c(C)c1 [Spiromesifen]
LEL (rat [13]; [49]): 13.2 mg/kg/day
LOAEL (rat [13]; [49]): 13.2 mg/kg/day
NEL (rat [13]; [49]): 3.3 mg/kg/day
NOAEL (rat [13]; [49]): 3.3 mg/kg/day
LEL (rat [13]; [50]): 13.2 mg/kg/day
LOAEL (rat [13]; [50]): 13.2 mg/kg/day
NEL (rat [13]; [51]): 3.3 mg/kg/day
NOAEL (rat [13]; [51]): 3.3 mg/kg/day
LEL (rat [13]; [52]): 18 mg/kg/day
LOAEL (rat [13]; [52]): 18 mg/kg/day
NEL (rat [13]; [52]): 4.6 mg/kg/day
NOAEL (rat [13]; [52]): 4.6 mg/kg/day
